PubChem BioAssay (NCI)
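How tested: cells in 96-well plates exposed to compound for 48 hours at five concentrations. GI50 = concentration required for 50% inhibition of growth. At the TGI there is no net growth.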

Assays:
Test in all cases: inhibition of tumour cell growth, NCI panel, 48 h
[1] = tested on: SK-MEL-2 melanoma
[2] = tested on: SK-OV-3 ovarian
[3] = tested on: UACC-257 melanoma
[4] = tested on: DLD-1 colon
[5] = tested on: UO-31 renal
[6] = tested on: OVCAR-8 ovarian
[7] = tested on: KM20L2 colon
[8] = tested on: COLO 205 colon
[9] = tested on: RPMI-8226 leukemia
[10] = tested on: HS 578T breast

SMILES | TGI [1] [µM] | TGI [2] [µM] | TGI [3] [µM] | TGI [4] [µM] | TGI [5] [µM] | TGI [6] [µM] | TGI [7] [µM] | TGI [8] [µM] | GI50 [1] [µM] | GI50 [2] [µM] | GI50 [3] [µM] | GI50 [9] [µM] | TGI [9] [µM] | GI50 [5] [µM] | GI50 [10] [µM] | TGI [10] [µM] | GI50 [6] [µM] | GI50 [8] [µM]
Cc1cccc(NC(=O)c2c(N)[n+]([O-])c3ccccc3[n+]2[O-])c1 | 23.3 | 63 | 24.4 | 26 | 32.6 | 32.3 | 30.5 | 27.2 | – | – | – | – | – | – | – | – | – | –
COC(=O)CNC(=O)C(=O)c1c(O)c(O)c(C(C)C)c2cc(C)c(-c3c(C)cc4c(C(C)C)c(O)c(O)c(C(=O)C(=O)NCC(=O)OC)c4c3O)c(O)c12 | 2.13 | 6.89 | 20.9 | – | 6.04 | 8.4 | – | 3.16 | 0.832 | 1.79 | 7.89 | 2.72 | > 50 | 1.43 | 1.83 | 8.58 | 2.05 | 1.28
CCCC(=O)Oc1ccc(/C(=C(\C)c2ccc(Cl)cc2)c2ccc(OCCN(CC)CC)cc2)cc1 | 5.93 | 17.5 | 4.18 | – | 3.11 | 11.9 | – | 3.66 | 2.83 | 4.85 | 2.02 | 2.92 | 9.02 | 1.43 | 2.68 | 9.33 | 3.43 | 1.82
CN(C)S(=O)(=O)c1cccc(C(=O)Nc2nc(-c3ccc(F)c(F)c3)cs2)c1 | > 100 | > 100 | > 100 | – | > 100 | > 100 | – | > 100 | 19.4 | 35.7 | 6.24 | 4.51 | > 29.4 | 9.09 | 14.2 | 91 | 8.28 | 35.6
O=C(n1c2ccccc2c2n[nH]c(=S)nc21)C(F)(F)F | – | > 100 | – | > 100 | > 100 | > 100 | – | > 100 | – | – | – | – | – | – | – | – | – | –
COc1ccc([N+](=O)[O-])c2c(NCCCN(C)C)c(C)c(C)nc12 | > 100 | > 100 | > 100 | – | > 100 | > 100 | – | > 100 | – | – | – | – | > 100 | – | – | > 100 | – | –
N[C@H]1CCC[C@@H](O)C1O (some centres undefined) | > 100 | > 100 | > 100 | – | > 100 | > 100 | – | > 100 | – | – | – | – | > 100 | – | – | > 100 | – | –
O=C1NC(c2ccccc2)(c2ccccc2)C(=O)N1CCCCCCN1C(=O)NC(c2ccccc2)(c2ccccc2)C1=O | 66.2 | 77.2 | > 100 | > 100 | > 100 | > 100 | > 100 | > 100 | – | – | – | – | > 100 | – | – | – | – | –
Cc1c(C)c2cc3c(=O)c(CCl)coc3c(C)c2oc1=O | > 100 | > 100 | > 100 | – | > 100 | > 100 | > 100 | > 100 | – | – | – | – | > 100 | – | – | – | – | –
O=C1c2ccccc2C(=O)N1c1ccc(Cc2ccc(N3C(=O)c4ccccc4C3=O)cc2)cc1 | > 100 | > 100 | > 100 | – | > 100 | > 100 | – | > 100 | – | – | – | – | > 100 | – | – | > 100 | – | –
N#CC1=C(N)NC(=O)C(C#N)C12Nc1ccccc1S2 (centres undefined) | > 100 | > 100 | > 100 | – | > 100 | > 100 | – | > 100 | 40.7 | 66.6 | 39.9 | 43.2 | > 100 | > 100 | 43.2 | > 100 | 91.3 | 89.9
CC(=O)/C=C1\CC(=O)N(C)c2ccccc2N1 | > 100 | > 100 | – | 22.9 | > 100 | > 100 | – | > 100 | – | – | – | – | – | – | – | – | – | –
CCN(Cc1cc(Cl)cc(C)c1O)Cc1c(O)ccc2ccccc12 | 32.7 | 29.8 | 30.4 | – | 30.4 | 37.7 | – | 42 | – | – | – | – | > 100 | – | – | 36.5 | – | –
CN(C)CCCNc1ccnc2c([N+](=O)[O-])cccc12 | – | – | 30.9 | – | > 100 | 61.6 | 16.7 | 5.34 | – | – | – | – | 69.4 | – | – | – | – | –
CC(=O)OC1(Sc2ccccc2)CC2[C@H]3COC(C)(C)O[C@H]3CC[C@@]2(C)CC1=O (some centres undefined) | > 100 | 95.7 | > 100 | > 100 | > 100 | > 100 | > 100 | > 100 | – | – | – | – | 69.7 | – | – | – | – | –
CCOC(=O)c1ccc(N=Cc2ccc(N(CCC#N)S(=O)(=O)c3ccccc3)cc2C)cc1 | > 100 | > 100 | > 100 | > 100 | > 100 | > 100 | > 100 | 52.9 | – | – | – | – | > 100 | – | – | – | – | –
COc1ccc2c(c1OC)C(=O)C2 | > 100 | > 100 | > 100 | – | > 100 | > 100 | > 100 | > 100 | – | – | – | – | > 100 | – | – | – | – | –
CC(C)(C)c1cc(C2c3cc4c(cc3OC(O)(CO)C2C(=O)O)OCO4)cc(C(C)(C)C)c1O (centres undefined) (tested in a mixture with another compound) | – | 45.8 | 26.4 | 33.2 | 26.6 | 33.9 | 33.4 | 37.8 | – | – | – | – | 22.7 | – | – | – | – | –
Nc1c(C(=O)c2cccc(-c3cccnc3)c2)cnn1-c1ccc(F)cc1 | > 25 | > 25 | > 25 | – | > 25 | > 25 | – | > 25 | > 25 | > 25 | > 25 | > 25 | > 25 | > 25 | > 25 | > 25 | > 13.9 | > 25
COc1ccc2nc3cc(Cl)ccc3c(Sc3ccc(N)cc3)c2c1 | 27.7 | 18.3 | 26.1 | 19.8 | 22.7 | 23.8 | 17.9 | 23.3 | – | – | – | – | – | – | – | – | – | –
COc1ccc2c(=O)c(-c3cc(OC)c(OC)cc3OC)coc2c1 | > 100 | > 44.1 | > 100 | > 100 | > 100 | > 100 | – | 42.6 | – | – | – | – | > 40.3 | – | – | – | – | –
